Values of other authors, collected in patent US20170027963A1, “DELIVERY OF NON-STEROIDAL AGENTS TO THE BRAIN VIA THE NASAL TRACT TO TREAT NEUROLOGICAL DISORDERS” (priority 2014, published 2017).

Conditions: prescribed ibuprofen for more than five years vs those who did not; US veterans aged 55 and older

CC(C)Cc1ccc(C(C)C(=O)O)cc1 (stereo not shown) [ibuprofen]
less likely to develop Alzheimer's disease: 40%
